From patent US20040086942A1, “Ige receptor antagonists” (priority 2003, published 2004)
Like-named read-outs stand apart in the source and are kept apart here. Where a SMILES comes first, the peptide text is derived from it. Bridges are numbered along the chain shown (N, C = ends). [ ]: non-standard residue; d: D form. Pip = O=C(O)[C@@H]1CCCCN1

Molecular target: T1, alpha subunit of the human FcεRI receptor (Homo sapiens, UniProt P12319)
T1 construct: expressed in transfected cells; host or cells: Chinese hamster ovary (CHO FcεRI+) cells
T1 sequence (P12319 26-257): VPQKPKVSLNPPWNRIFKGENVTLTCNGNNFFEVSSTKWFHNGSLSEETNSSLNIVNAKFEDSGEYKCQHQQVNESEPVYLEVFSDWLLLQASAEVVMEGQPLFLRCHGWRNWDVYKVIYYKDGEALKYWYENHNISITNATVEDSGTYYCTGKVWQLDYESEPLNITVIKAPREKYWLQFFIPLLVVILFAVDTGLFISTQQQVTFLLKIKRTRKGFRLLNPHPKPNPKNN
Experiment: cell-based 125I-IgE binding inhibition assay on CHO FcεRI+ cells
Settings: for fold difference in activity relative to comparator peptide: comparator (parent/control peptide) as named in the sentence
Description: . The following day the cells were rinsed three times with PBS and then once with F12/DMEM. Peptide stocks were reconstituted in 100 mM Hepes buffered water, pH 7.2, at a concentration of 5 mg/mL. Working concentrations of the peptide were diluted in assay buffer (see below). 75 ul, of a desired concentration of peptide was added to the top row of a separate 96 well microtiter plate and serially diluted 1:3 in 50 uL of the assay buffer (F12/DMEM, 1% BSA, 0.05% NaN3 and […] Hepes pH 7.2). Starting concentrations ranged from 50-500 uM. Next, 50 uL of the diluted peptide was transferred to the 96 microtiter well plate containing a monolayer of CHO FcεRI+ cells. After a 1 hour incubation at room temperature, 50 uL of ^125I-IgE (1.5 nM) was added to each well and incubated for an additional 45-60 minutes at 4° C. followed by 5 washes with 200 uL of assay buffer. Cells were solubilized with 200 uL of 1 N NaOH and transferred to a 96 microtiter tube for counting in a gamma counter to determine counts bound. The data were plotted using KaleidaGraph 3.0 and fitted using 4-parameter fits. IC50 values were determined for each peptide.
Six peptides based on selected clones from library #516 were synthesized and assayed for the ability to inhibit the binding of ^125I-IgE to a Chinese hamster ovary cell line expressing the alpha subunit of the IgE high affinity receptor, FcεRI. The peptides were synthesized as nine residue monomers and oxidized to allow the formation of a disulfide bridge resulting in a cyclic peptide. The size of each peptide was confirmed by mass spectrometry.

[1] = inhibition of labeled IgE-binding to CHO FcεRI+ cells, read-out: Mean IC50(uM) ± S.D.

SMILES | IC50 [1] [µM] | further results
CC[C@H](C)[C@H](NC(=O)[C@@H]1CSSC[C@H](NC(C)=O)C(=O)N[C@@H]([C@@H](C)O)C(=O)N[C@@H](CCC(=O)O)C(=O)NCC(=O)N2CCC[C@H]2C(=O)N[C@@H](Cc2c[nH]c3ccccc23)C(=O)NCC(=O)N[C@@H](Cc2c[nH]c3ccccc23)C(=O)N[C@@H](C(C)C)C(=O)N1)C(N)=O [IGE056, Ac-CTEGPWGWVCI-nh2] (Ac-CTEGPWGWVCI-NH2; disulfide 1-10) | > 500 | 
CSCC[C@H](NC(=O)[C@@H]1CSSC[C@H](NC(=O)[C@H](CCCNC(=N)N)NC(=O)[C@@H]2CCCN2C(=O)[C@H](CC(C)C)NC(=O)[C@@H](N)CC(N)=O)C(=O)N[C@@H]([C@@H](C)O)C(=O)N[C@@H](CCC(=O)O)C(=O)NCC(=O)N2CCC[C@H]2C(=O)N[C@@H](Cc2c[nH]c3ccccc23)C(=O)NCC(=O)N[C@@H](Cc2c[nH]c3ccccc23)C(=O)N[C@@H](C(C)C)C(=O)N1)C(=O)N[C@@H](C)C(=O)N[C@@H](C)C(=O)N[C@@H](CC(=O)O)C(N)=O [IGE043, NLPRCTEGPWGWVCMAAD-nh2] (H-NLPRCTEGPWGWVCMAAD-NH2; disulfide 5-14) | 1.4 ± 1 | 
CC[C@H](C)[C@H](N)C(=O)N[C@H](C(=O)N[C@H]1CSSC[C@@H](C(=O)N[C@@H](Cc2ccc(O)cc2)C(=O)N[C@H](C(N)=O)C(C)C)NC(=O)[C@H](C(C)C)NC(=O)[C@H](CC(=O)O)NC(=O)[C@@H]2CCCN2C(=O)[C@@H]2CSSC[C@H](NC(=O)[C@H](CC(C)C)NC(=O)[C@H](CCCNC(=N)N)NC(=O)[C@@H]3CCCN3C1=O)C(=O)N[C@@H](Cc1ccc(O)cc1)C(=O)N[C@@H](CCC(=O)O)C(=O)N[C@@H](CC(C)C)C(=O)N[C@@H](CC(=O)O)C(=O)N[C@@H](Cc1ccc(O)cc1)C(=O)N[C@@H](CCC(=O)O)C(=O)N[C@@H](CC(C)C)C(=O)N2)C(C)C [IGE141] (H-IVCPRLCYELDYELCPDVCYV-NH2; disulfide 3-19, 7-15) |  | fold difference in activity relative to comparator peptide: 2 fold
CC[C@H](C)[C@H](NC(=O)[C@@H]1CSSC[C@H](NC(=O)[C@H](CC(C)C)NC(=O)[C@@H](NC(=O)CNC(=O)[C@@H](N)CCSC)[C@@H](C)O)C(=O)N[C@@H](CC(C)C)C(=O)N[C@@H](CCC(=O)O)C(=O)NCC(=O)N2CCC[C@H]2C(=O)N[C@@H](CCC(=O)O)C(=O)NCC(=O)N[C@@H](Cc2c[nH]c3ccccc23)C(=O)N[C@@H](Cc2ccccc2)C(=O)N1)C(=O)N[C@@H](CCC(=O)O)C(=O)N[C@@H](CO)C(=O)N[C@@H](C)C(=O)O [MGTLCLEGPEGWFCIESA] (H-MGTLCLEGPEGWFCIESA-OH; disulfide 5-14) |  | IC50 (IGE037: initially, read-out: IC50): > 160 µM
CC[C@H](C)[C@H](NC(=O)[C@@H]1CSSC[C@H](N)C(=O)N[C@@H](CC(C)C)C(=O)N[C@@H](CCC(=O)O)C(=O)NCC(=O)N2CCC[C@H]2C(=O)N[C@@H](Cc2c[nH]c3ccccc23)C(=O)NCC(=O)N[C@@H](Cc2c[nH]c3ccccc23)C(=O)N[C@@H](Cc2ccccc2)C(=O)N1)C(N)=O [IGE045, CLEGPWGWFCI-nh2] (H-CLEGPWGWFCI-NH2; disulfide 1-10; N-terminus assumed) | 300 ± 269 | 
CC(C)C[C@@H]1NC(=O)[C@H](CCC(=O)O)NC(=O)[C@H](C)NC(=O)CNC(=O)CNC(=O)[C@H](Cc2ccccc2)NC(=O)[C@H](Cc2ccc(O)cc2)NC(=O)[C@@H]2CSSC[C@H](NC1=O)C(=O)N1CCC[C@H]1C(=O)N[C@@H](CC(=O)O)C(=O)N[C@@H](C(C)C)C(=O)N[C@H](C(=O)N[C@@H](Cc1ccc(O)cc1)C(=O)N[C@H](C(N)=O)C(C)C)CSSC[C@H](NC(=O)[C@H](CCC(N)=O)NC(=O)[C@@H](N)C(C)C)C(=O)N1CCCC[C@H]1C(=O)N[C@@H](Cc1c[nH]cn1)C(=O)N[C@@H](Cc1ccccc1)C(=O)N2 [IGE162-2, VQC(Pip)HFCYFGGAELCPDVCYV-nh2] (H-VQC[Pip]HFCYFGGAELCPDVCYV-NH2; disulfide 3-19, 7-15) |  | fold difference in activity relative to comparator peptide: little change in activity
CC[C@H](C)[C@H](NC(=O)[C@@H]1CSSC[C@H](N)C(=O)N[C@@H]([C@@H](C)O)C(=O)N[C@@H](CCC(=O)O)C(=O)NCC(=O)N2CCC[C@H]2C(=O)N[C@@H](Cc2c[nH]c3ccccc23)C(=O)NCC(=O)N[C@@H](Cc2c[nH]c3ccccc23)C(=O)N[C@@H](C(C)C)C(=O)N1)C(N)=O [IGE055, CTEGPWGWVCI-nh2] (H-CTEGPWGWVCI-NH2; disulfide 1-10) | > 500 | 
CSCC[C@H](NC(=O)[C@@H]1CSSC[C@H](NC(=O)[C@H](CCCNC(=N)N)NC(=O)[C@@H]2CCCN2C(=O)[C@H](CC(C)C)NC(=O)[C@@H](N)CC(N)=O)C(=O)N[C@@H]([C@@H](C)O)C(=O)N[C@@H](CCC(=O)O)C(=O)NCC(=O)N2CCC[C@H]2C(=O)N[C@@H](Cc2c[nH]c3ccccc23)C(=O)NCC(=O)N[C@@H](Cc2c[nH]c3ccccc23)C(=O)N[C@@H](C(C)C)C(=O)N1)C(=O)N[C@@H](C)C(=O)N[C@@H](C)C(=O)N[C@@H](CC(=O)O)C(=O)O [NLPRCTEGPWGWVCMAAD] (H-NLPRCTEGPWGWVCMAAD-OH; disulfide 5-14; N-terminus and C-terminus assumed) |  | fold improvement over the EIQECTEGPWGWFCVGSG peptide: 40 fold; fold improvement over the MGTLCLEGPEGWFCIESA peptide: greater than 160 fold
CSCC[C@H](NC(=O)[C@@H]1CSSC[C@H](NC(=O)[C@H](CCCNC(=N)N)NC(=O)[C@@H]2CCCN2C(=O)[C@H](CC(C)C)NC(=O)[C@H](CC(N)=O)NC(C)=O)C(=O)N[C@@H]([C@@H](C)O)C(=O)N[C@@H](C)C(=O)NCC(=O)N2CCC[C@H]2C(=O)N[C@@H](Cc2c[nH]c3ccccc23)C(=O)NCC(=O)N[C@@H](Cc2c[nH]c3ccccc23)C(=O)N[C@@H](C(C)C)C(=O)N1)C(=O)N[C@@H](C)C(=O)N[C@@H](C)C(=O)N[C@@H](CC(=O)O)C(N)=O [IGE059, AC-NLPRCTAGPWGWVCMAAD-nh2] (Ac-NLPRCTAGPWGWVCMAAD-NH2; disulfide 5-14) |  | fold reduction in inhibition/binding (truncations and alanine substitutions of IGE063): 6 fold
CC(=O)N[C@@H](C)C(=O)N[C@@H](CC(C)C)C(=O)N[C@H]1CSSC[C@@H](C(=O)N[C@@H](Cc2ccc(O)cc2)C(=O)N[C@H](C(N)=O)C(C)C)NC(=O)[C@H](C(C)C)NC(=O)[C@H](CCC(=O)O)NC(=O)[C@@H]2CCCN2C1=O [IGE036, Ac-ALCPEVCYV-nh2] (Ac-ALCPEVCYV-NH2; disulfide 3-7) |  | inhibiting 125I-IgE binding to cell surface expressed FcεRI (in words): not active; IC50 (IgE-inhibition activity of synthetic peptides, read-out: Inhibition activity: C+hd 50 +l (uM) ± s.d.): > 500 µM
CSCC[C@H](NC(=O)[C@@H]1CSSC[C@H](NC(=O)[C@H](CCCNC(=N)N)NC(=O)[C@@H]2CCCN2C(=O)[C@H](CC(C)C)NC(=O)[C@H](CC(N)=O)NC(C)=O)C(=O)N[C@@H]([C@@H](C)O)C(=O)N[C@@H](CCC(=O)O)C(=O)NCC(=O)N2CCC[C@H]2C(=O)N[C@@H](Cc2c[nH]c3ccccc23)C(=O)NCC(=O)N[C@@H](Cc2c[nH]c3ccccc23)C(=O)N[C@@H](C(C)C)C(=O)N1)C(N)=O [IGE058, Ac-NLPRCTEGPWGWVCM-nh2] (Ac-NLPRCTEGPWGWVCM-NH2; disulfide 5-14) | 1.8 ± 1.3 | 

Continued, in another order:

IC50 [1] [µM] | SMILES | further results
1.4 ± 1.1 | CC[C@H](C)[C@H](NC(=O)[C@@H]1CSSC[C@H](NC(=O)[C@H](CCCNC(=N)N)NC(=O)[C@@H]2CCCN2C(=O)[C@H](CC(C)C)NC(=O)[C@@H](N)CC(N)=O)C(=O)N[C@@H]([C@@H](C)O)C(=O)N[C@@H](CCC(=O)O)C(=O)NCC(=O)N2CCC[C@H]2C(=O)N[C@@H](Cc2c[nH]c3ccccc23)C(=O)NCC(=O)N[C@@H](Cc2c[nH]c3ccccc23)C(=O)N[C@@H](C(C)C)C(=O)N1)C(=O)O [IGE075, NLPRCTEGPWGWVCI] (H-NLPRCTEGPWGWVCI-OH; disulfide 5-14; N-terminus and C-terminus assumed) | 
> 500 | CSCC[C@H](NC(=O)[C@@H]1CSSC[C@H](NC(=O)[C@@H]2CCCN2C(=O)[C@H](CC(C)C)NC(=O)[C@H](CC(N)=O)NC(C)=O)C(=O)N[C@@H]([C@@H](C)O)C(=O)N[C@@H](C)C(=O)NCC(=O)N2CCC[C@H]2C(=O)N[C@@H](Cc2c[nH]c3ccccc23)C(=O)NCC(=O)N[C@@H](Cc2c[nH]c3ccccc23)C(=O)N[C@@H](C(C)C)C(=O)N1)C(=O)N[C@@H](C)C(=O)N[C@@H](C)C(=O)N[C@@H](CC(=O)O)C(N)=O [IGE060, Ac-NLPCTAGPWGWVCMAAD-nh2] (Ac-NLPCTAGPWGWVCMAAD-NH2; disulfide 4-13) | 
> 500 | CSCC[C@H](NC(=O)[C@@H]1CSSC[C@H](NC(=O)[C@H](CCCNC(=N)N)NC(=O)[C@@H]2CCCN2C(=O)[C@H](CC(C)C)NC(=O)[C@@H](N)CC(N)=O)C(=O)N[C@@H]([C@@H](C)O)C(=O)N[C@@H](CCC(=O)O)C(=O)NCC(=O)N[C@@H](C)C(=O)N[C@@H](Cc2c[nH]c3ccccc23)C(=O)NCC(=O)N[C@@H](Cc2c[nH]c3ccccc23)C(=O)N[C@@H](C(C)C)C(=O)N1)C(=O)O [IGE070, NLPRCTEGAWGWVCM] (H-NLPRCTEGAWGWVCM-OH; disulfide 5-14) | 
